The test system of test [1] is A549. Nature of the test: cells. As to conditions: Homo sapiens, A549, 24 h.
Description: Antiproliferative activity against human A549 cells assessed as reduction in cell viability after 24 hrs by MTT assay
Test [2] deals with Epidermal growth factor receptor (Homo sapiens, UniProt P00533, L858R). As to the kind of experiment: Inhibition of human recombinant GST-tagged EGFR L858R mutant expressed in baculovirus expression system reduction in phosphorylation using tyrosine 4 peptide as substrate after 60 mins FRET based Z'-LYTE assay.
Test [3] has as its system A-431. As to the kind of experiment: Antiproliferative activity against human A431 cells assessed as reduction in cell viability after 24 hrs by MTT assay. It is filed as functional, cell-based. As to conditions: A-431, 24 h.
For test [4], the system named is NCI-H460. Nature of the test: Antiproliferative activity against human H460 cells assessed as reduction in cell viability after 24 hrs by MTT assay. It is filed as functional, cell-based. The settings on record: NCI-H460, 24 h.
In test [5] the target is Hepatocyte growth factor receptor (Homo sapiens, UniProt P08581). As to the kind of experiment: Inhibition of human recombinant His-tagged cMET expressed in baculovirus expression system reduction in phosphorylation using tyrosine 6 peptide as substrate after 60 mins FRET based Z'-LYTE assay.
Test [6] deals with Epidermal growth factor receptor (Homo sapiens, UniProt P00533, L858R/T790M). As to the kind of experiment: Inhibition of human recombinant GST-tagged EGFR L858R/T790M mutant expressed in baculovirus expression system reduction in phosphorylation using tyrosine 4 peptide as substrate after 60 mins FRET based Z'-LYTE assay.
Test [7] relates to NCI-H460. Nature of the test: Antiproliferative activity against human H460 cells assessed as cell viability at 30 uM after 48 hrs by MTT assay relative to control. It is filed as functional. As to conditions: NCI-H460, 48 h, read-out: Activity.
Test [8] concerns NCI-H460. As to the kind of experiment: Antiproliferative activity against human H460 cells assessed as cell viability at 40 uM after 48 hrs by MTT assay relative to control. The settings on record: NCI-H460, 48 h, read-out: Activity. It is filed as functional.
The test system of test [9] is A-431. Nature of the test: Antiproliferative activity against human A431 cells assessed as cell viability at 10 uM after 48 hrs by MTT assay relative to control. It is filed as functional. The settings on record: A-431, 48 h, read-out: Activity.
In test [10] the test system is A-431. Nature of the test: Antiproliferative activity against human A431 cells assessed as cell viability at 40 uM after 48 hrs by MTT assay relative to control. It is filed as functional. As to conditions: A-431, 48 h, read-out: Activity.
The test system of test [11] is NCI-H460. As to the kind of experiment: Antiproliferative activity against human H460 cells assessed as cell viability at 10 uM after 48 hrs by MTT assay relative to control. It is filed as functional. The settings on record: NCI-H460, 48 h, read-out: Activity.
Test [12] concerns A549. Nature of the test: Antiproliferative activity against human A549 cells assessed as cell viability at 10 uM after 48 hrs by MTT assay relative to control. It is filed as functional. As to conditions: A549, 48 h, read-out: Activity.
The subject of test [13] is A-431. As to the kind of experiment: Antiproliferative activity against human A431 cells assessed as cell viability at 30 uM after 48 hrs by MTT assay relative to control. It is filed as functional. As to conditions: A-431, 48 h, read-out: Activity.
Test [14] deals with A549. As to the kind of experiment: Antiproliferative activity against human A549 cells assessed as cell viability at 40 uM after 48 hrs by MTT assay relative to control. It is filed as functional. The settings on record: A549, 48 h, read-out: Activity.
Test [15] relates to NCI-H460. Nature of the test: Antiproliferative activity against human H460 cells assessed as cell viability at 20 uM after 48 hrs by MTT assay relative to control. It is filed as functional. The settings on record: NCI-H460, 48 h, read-out: Activity.
The subject of test [16] is A549. As to the kind of experiment: Antiproliferative activity against human A549 cells assessed as cell viability at 30 uM after 48 hrs by MTT assay relative to control. It is filed as functional. The settings on record: A549, 48 h, read-out: Activity.
The subject of test [17] is A549. Nature of the test: Antiproliferative activity against human A549 cells assessed as cell viability at 20 uM after 48 hrs by MTT assay relative to control. It is filed as functional. As to conditions: A549, 48 h, read-out: Activity.
In test [18] the test system is A-431. As to the kind of experiment: Antiproliferative activity against human A431 cells assessed as cell viability at 20 uM after 48 hrs by MTT assay relative to control. It is filed as functional. As to conditions: A-431, 48 h, read-out: Activity.

SMILES strings stand for the structures.

Chain of Epidermal growth factor receptor (Homo sapiens, UniProt P00533, L858R) (P00533 25-1210 L858R limits assumed): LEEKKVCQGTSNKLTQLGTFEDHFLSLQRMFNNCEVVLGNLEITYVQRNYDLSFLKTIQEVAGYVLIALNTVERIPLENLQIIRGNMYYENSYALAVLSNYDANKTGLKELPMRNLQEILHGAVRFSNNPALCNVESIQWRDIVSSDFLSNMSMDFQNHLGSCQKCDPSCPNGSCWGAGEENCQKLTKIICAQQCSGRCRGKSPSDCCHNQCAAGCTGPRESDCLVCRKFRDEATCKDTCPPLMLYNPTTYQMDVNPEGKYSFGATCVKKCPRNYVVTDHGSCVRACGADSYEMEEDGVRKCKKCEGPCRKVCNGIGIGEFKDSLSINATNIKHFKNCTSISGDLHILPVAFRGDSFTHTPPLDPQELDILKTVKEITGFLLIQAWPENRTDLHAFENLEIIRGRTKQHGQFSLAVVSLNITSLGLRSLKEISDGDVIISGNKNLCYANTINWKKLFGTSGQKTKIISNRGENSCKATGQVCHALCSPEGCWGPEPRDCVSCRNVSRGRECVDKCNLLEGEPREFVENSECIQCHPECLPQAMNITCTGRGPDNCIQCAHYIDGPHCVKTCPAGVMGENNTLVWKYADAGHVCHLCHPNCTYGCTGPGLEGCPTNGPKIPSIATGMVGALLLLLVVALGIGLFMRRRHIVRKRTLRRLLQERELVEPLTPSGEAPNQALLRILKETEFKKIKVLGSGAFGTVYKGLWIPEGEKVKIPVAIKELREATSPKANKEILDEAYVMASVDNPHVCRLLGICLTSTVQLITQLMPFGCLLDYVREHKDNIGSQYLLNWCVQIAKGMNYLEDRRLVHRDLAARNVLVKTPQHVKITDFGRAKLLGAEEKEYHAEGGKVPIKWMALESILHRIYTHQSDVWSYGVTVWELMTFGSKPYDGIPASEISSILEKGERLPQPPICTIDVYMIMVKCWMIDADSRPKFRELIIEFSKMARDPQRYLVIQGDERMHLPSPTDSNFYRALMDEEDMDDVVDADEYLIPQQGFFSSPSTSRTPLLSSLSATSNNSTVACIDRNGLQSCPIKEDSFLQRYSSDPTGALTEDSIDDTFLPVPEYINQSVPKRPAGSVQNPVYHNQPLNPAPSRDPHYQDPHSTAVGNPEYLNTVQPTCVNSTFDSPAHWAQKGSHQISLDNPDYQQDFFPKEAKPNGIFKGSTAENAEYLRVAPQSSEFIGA
Chain of Epidermal growth factor receptor (Homo sapiens, UniProt P00533, L858R/T790M) (P00533 25-1210 T790M/L858R limits assumed): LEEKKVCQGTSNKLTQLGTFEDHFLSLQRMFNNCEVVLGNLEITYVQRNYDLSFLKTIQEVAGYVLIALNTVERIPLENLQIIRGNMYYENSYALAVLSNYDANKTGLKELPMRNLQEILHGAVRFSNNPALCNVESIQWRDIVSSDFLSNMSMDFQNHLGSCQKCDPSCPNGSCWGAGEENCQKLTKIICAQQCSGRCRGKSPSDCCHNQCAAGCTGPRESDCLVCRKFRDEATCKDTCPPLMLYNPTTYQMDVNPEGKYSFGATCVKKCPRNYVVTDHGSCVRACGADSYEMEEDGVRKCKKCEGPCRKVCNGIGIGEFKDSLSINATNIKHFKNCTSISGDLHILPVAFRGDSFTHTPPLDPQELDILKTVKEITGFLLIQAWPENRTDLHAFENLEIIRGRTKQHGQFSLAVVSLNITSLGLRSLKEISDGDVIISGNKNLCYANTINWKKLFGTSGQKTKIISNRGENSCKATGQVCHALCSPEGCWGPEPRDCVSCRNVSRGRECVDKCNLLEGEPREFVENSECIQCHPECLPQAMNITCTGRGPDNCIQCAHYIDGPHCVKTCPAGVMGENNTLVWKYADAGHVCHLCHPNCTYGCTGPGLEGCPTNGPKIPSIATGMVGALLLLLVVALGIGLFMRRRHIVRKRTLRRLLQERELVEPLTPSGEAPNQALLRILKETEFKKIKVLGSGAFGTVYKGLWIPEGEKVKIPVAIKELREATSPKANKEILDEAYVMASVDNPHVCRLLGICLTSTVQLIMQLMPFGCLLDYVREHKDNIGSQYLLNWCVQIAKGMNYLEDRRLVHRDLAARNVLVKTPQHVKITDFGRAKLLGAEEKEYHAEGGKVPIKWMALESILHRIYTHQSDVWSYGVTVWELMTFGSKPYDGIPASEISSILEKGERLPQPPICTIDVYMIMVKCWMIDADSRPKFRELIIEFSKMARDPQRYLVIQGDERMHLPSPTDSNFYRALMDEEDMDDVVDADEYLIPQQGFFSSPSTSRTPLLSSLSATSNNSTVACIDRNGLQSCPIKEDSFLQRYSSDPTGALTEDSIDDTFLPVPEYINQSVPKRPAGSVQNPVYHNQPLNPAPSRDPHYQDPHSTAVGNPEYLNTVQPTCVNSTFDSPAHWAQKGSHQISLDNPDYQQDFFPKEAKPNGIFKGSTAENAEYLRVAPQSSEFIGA
Chain of Hepatocyte growth factor receptor (P08581 whole entry): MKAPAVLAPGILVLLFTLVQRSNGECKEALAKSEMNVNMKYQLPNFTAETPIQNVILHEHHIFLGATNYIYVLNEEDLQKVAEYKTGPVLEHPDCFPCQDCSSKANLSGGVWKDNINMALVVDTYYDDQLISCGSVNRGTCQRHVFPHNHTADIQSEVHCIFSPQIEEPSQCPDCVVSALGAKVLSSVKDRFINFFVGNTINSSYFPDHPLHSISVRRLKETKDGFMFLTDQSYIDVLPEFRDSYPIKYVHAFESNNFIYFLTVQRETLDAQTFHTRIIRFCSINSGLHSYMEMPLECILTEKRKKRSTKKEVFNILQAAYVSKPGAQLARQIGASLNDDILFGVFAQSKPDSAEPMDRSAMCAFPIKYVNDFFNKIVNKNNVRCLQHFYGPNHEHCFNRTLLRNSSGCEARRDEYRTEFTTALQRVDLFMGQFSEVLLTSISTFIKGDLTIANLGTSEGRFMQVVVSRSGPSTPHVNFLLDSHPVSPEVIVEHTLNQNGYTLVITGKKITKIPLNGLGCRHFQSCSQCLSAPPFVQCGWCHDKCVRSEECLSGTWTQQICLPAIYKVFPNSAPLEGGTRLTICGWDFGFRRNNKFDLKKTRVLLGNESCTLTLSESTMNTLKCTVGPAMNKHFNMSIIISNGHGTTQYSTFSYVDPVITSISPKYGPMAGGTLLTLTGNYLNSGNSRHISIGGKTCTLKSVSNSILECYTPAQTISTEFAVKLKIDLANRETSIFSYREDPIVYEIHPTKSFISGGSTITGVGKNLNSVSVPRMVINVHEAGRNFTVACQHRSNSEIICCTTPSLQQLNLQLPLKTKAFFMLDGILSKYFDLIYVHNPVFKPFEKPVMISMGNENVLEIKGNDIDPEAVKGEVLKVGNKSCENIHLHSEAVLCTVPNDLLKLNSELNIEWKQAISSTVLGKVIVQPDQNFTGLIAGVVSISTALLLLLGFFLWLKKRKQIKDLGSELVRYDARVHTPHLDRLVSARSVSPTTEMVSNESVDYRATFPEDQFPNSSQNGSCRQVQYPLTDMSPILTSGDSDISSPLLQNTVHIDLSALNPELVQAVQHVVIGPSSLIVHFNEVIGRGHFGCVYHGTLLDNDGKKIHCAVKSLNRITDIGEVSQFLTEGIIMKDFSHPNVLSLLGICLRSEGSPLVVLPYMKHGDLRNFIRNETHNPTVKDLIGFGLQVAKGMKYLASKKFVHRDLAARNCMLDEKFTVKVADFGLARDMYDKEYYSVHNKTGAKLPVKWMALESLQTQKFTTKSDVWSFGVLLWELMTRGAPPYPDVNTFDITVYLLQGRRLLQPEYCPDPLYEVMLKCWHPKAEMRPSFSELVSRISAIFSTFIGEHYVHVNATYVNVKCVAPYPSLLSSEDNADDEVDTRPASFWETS

As to `Cc1cc(O)n2nc(SCc3cccc(Cl)c3)nc2n1`, the IC50 in [1] was over 80000 nM; in [2], 131 nM; in test [3], over 40000 nM; in test [4], over 80000 nM; in [5] it was 92 nM; in test [6], 59 nM.

As to `Cc1cc(=O)n2nc(SCc3ccc(Cl)cc3)nc2[nH]1`, the IC50 in [1] stood at 61400 nM; in test [2] it was 54 nM; in [3], 32500 nM; in [4], 56500 nM; in test [5], 113 nM; in [6] it was 182 nM.

`Cc1cc(=O)n2nc(SCc3cccc(C(F)(F)F)c3)nc2[nH]1`: the IC50 in test [1] came out at 72000 nM; in test [2], 81 nM; in test [3], 21800 nM; in test [4], 65800 nM; in test [5] it was 94 nM; in test [6] it was 84 nM.

In the case of `Cc1cc(=O)n2nc(SCc3ccc(F)cc3)nc2[nH]1`, the IC50 in [1] is over 80000 nM; in test [2], 52 nM; in test [3], over 40000 nM; in test [4], over 80000 nM; in [5], 203 nM; in test [6], 56 nM.

Consider `Cc1cc(=O)n2nc(SCc3ccc([N+](=O)[O-])cc3)nc2[nH]1`, for which the 50% inhibitory concentration (IC50) in test [1] is over 80000 nM; in test [2] it was 107 nM; in test [3], over 40000 nM; in [4], over 80000 nM; in test [5], 104 nM; in test [6], 76 nM.

In the case of `Cc1cc(=O)n2nc(SCc3ccc(C(C)C)cc3)nc2[nH]1`, the results for the viability at 30 µM in [7], in test [13] and in test [16] were 56%, 38.8% and 65.3%, respectively. Further, the figures for the viability at 40 µM in test [8], in [10] and in [14] were 41.8%, 17.7% and 43.4%, respectively. Moreover, the viability at 10 µM was determined as 71.7% in [9], 86.7% in [11] and 89.7% in test [12]. Moreover, the IC50 in test [1] is 35200 nM; in [2], 80 nM; in [3], 17300 nM; in [4], 31800 nM; in test [5], 50 nM; in test [6], 62 nM. Moreover, the viability at 20 µM came out at 71.6% in test [15], 79.6% in [17] and 50.7% in test [18].

As for `Cc1ccc(CSc2nc3[nH]c(C)cc(=O)n3n2)cc1`, the viability at 10 µM in [9] worked out at 75.8%. Also, the viability at 40 µM in test [10] turned out to be 32.5%. Moreover, the IC50 is 50100 nM in test [1]; 311 nM in [2]; 15800 nM in test [3]; 49900 nM in test [4]; 79 nM in [5]; 168 nM in test [6]. Also, the viability at 30 µM in test [13] was found to be 41.7%. Besides, the viability at 20 µM in test [18] is 62.5%.

Take `Cc1cc(=O)n2nc(SCc3cccc([N+](=O)[O-])c3)nc2[nH]1`: the IC50 in [1] is over 80000 nM; in test [2], 157 nM; in test [3], over 40000 nM; in test [4] it was over 80000 nM; in [5], 89 nM; in test [6] it was 77 nM.

Turning to `Cc1cc(=O)n2nc(SCc3ccc(C(C)(C)C)cc3)nc2[nH]1`, the IC50 in [1] was 60500 nM; in test [3], 24400 nM; in test [4] it was 59000 nM; in test [5], 65 nM.

`Cc1cc(=O)n2nc(SCc3ccc(Cl)cc3Cl)nc2[nH]1`: the viability at 30 µM in test [7] is 51%; in [16] it was 61.2%. For the same compound, the viability at 40 µM in test [8] is 34.9%; in test [14], 46.8%. In addition, the IC50 in [1] was found to be 34900 nM; in test [2], 141 nM; in [3], 18200 nM; in test [4], 27200 nM; in test [5], 42 nM; in [6], 141 nM. The viability at 10 µM in [11] came to 83.5%; in test [12] it was 88.3%. Also, the viability at 20 µM in [15] was found to be 65.7%; in test [17], 77%.

(Values after ChEMBL document CHEMBL4340550, “Structure based designing of triazolopyrimidone-based reversible inhibitors for kinases involved in NSCLC” (Bioorg Med Chem Lett, 2019).)
